In patent US20220290103A1, “METHODS AND COMPOSITIONS USING AUXOTROPHIC REGULATABLE CELLS” (AUXOLYTIC LTD, priority 2019, published 2022):

How the values were obtained:
Mock T cells = experiment: 5-FOA selection, cell counts after 4 days; type: cell-based, human; details: for Average number of cells per volume unit: grown in 5-FOA 4 days, UMP + Urid; for Average of cells per volume unit: grown in 5-FOA without serum
Method: (§1) 5-FOA selects for uracil auxotrophic cells in other organisms (e.g. Boeke et al. 1984, Mol. Gen. Genet. 197(2):345-6), which is hereby incorporated by reference in its entirety). To investigate the potential utility of 5-FOA for the selection of uracil auxotrophs among human cells, the UMPS gene was targeted in human T cells by Cas9-gRNA complex electroporation followed by recovery (as shown in Example 2) followed by an assay of resistance to 5-FOA treatment (FIG. 3A). Cells were grown in 5-FOA and a variety of combinations of serum and uracil sources for 4 days before cell counting was performed.

UMPS-7 targeted T cells = experiment: 5-FOA selection, cell counts after 4 days; type: cell-based, human; details: for Average number of cells per volume unit: UMPS-7, grown in 5-FOA 4 days, UMP + Urid; for Average of cells per volume unit: UMPS-7, grown in 5-FOA without serum; for Survival in 5-FOA compared to control: both mock treated and UMPS targeted cells
Method: as §1

UMPS^KO/KO hESCs (GFP+) = experiment: 5-FOA resistance in co-culture, FACS; type: cell-based, human
Description: (§2) To assess resistance to 5-FOA, the UMPS-KO hESCs were genetically engineered to express GFP from an expression cassette integrated into a safe-harbor locus for easier identification in co-culture with UMPS-WT cells.
(§3) These UMPS^KO/KO hESCs were mixed with UMPS^WT/WT cells that were not expressing GFP and followed up by fluorescence-activated cell sorting (FACS) analysis in the presence of different concentrations of 5-FOA. Table 16 provides counts of viable GFP+ and GFP− cells after culture with different 5-FOA concentrations.

UMPS^WT/WT cells (GFP−) = experiment: 5-FOA resistance in co-culture, FACS; type: cell-based, human; details: all tested 5-FOA concentrations
Description: as §2, §3

[1] = test system: UMPS^KO/KO/GFP^+ K562 cells mixed with UMPS^WT/WT/GFP-negative K562 cells; experiment: 5-FOA resistance in mixed culture; type: cell-based, human
Method: To determine the resistance of UMPS knockout cells to 5-FOA the purified UMPS^KO/KO/GFP^+ K562 cells were mixed at an equal ratio with UMPS^WT/WT/GFP-negative K562 cells. The cells were cultured in the presence of Uridine and different concentrations of 5-FOA (FIG. 6F).

[2] = test system: UMPS-KO T cells mixed with wild-type T cells; experiment: 5-FOA selection in mixed population of T cells, FACS; type: cell-based, human
Description: To evaluate the possibility to select for UMPS^KO/KO cells with 5-FOA, the sorted cells were mixed with wild-type cells, which were labeled with different tracking dyes, and cultured in the presence or absence of 5-FOA. In part of the samples, 5-FOA was only added on the first day (Day 0) while in another group it was supplemented daily. Table 30 and FIG. 7C show the percent (%) of the UMPS-KO T cells (labelled with eFluor670) over time when culturing with or without 5-FOA.
In fact, FACS analysis of a culture of a mixed population of UMPS knockout and wild-type T cells with 5-FOA. UMPS-KO T cells were labeled with eFluor670, and wild-type cells were labeled with carboxyfluorescein succinimidyl ester (CFSE). […] On Day 0 in the control group not treated with 5-FOA, 47.7% of the cells were UMPS-KO T cells, and 52.1% were wild-type cells. On Day 3 in the group with 5-FOA supplemented daily, 74.0% of the cells were UMPS-KO T cells, while 25.8% were wild-type cells. On Day 3 in the control group not treated with 5-FOA, 43.1% of the cells were UMPS-KO T cells, and 56.4% were wild-type cells.

CCR5 knockout T cells = experiment: Time course of cell counts with/without UMP or uridine; type: cell-based, human; details: with metabolite 250 μg/ml
Method: (§4) Cells were cryopreserved in BAMBANKER™ medium. After thawing cells were cultured at 37° C., 5% CO2 in X-Vivo 15 (Lonza) supplemented with or without 5% human serum (Sigma-Aldrich) and […] human recombinant IL-2 (Peprotech) and 10 ng/ml human recombinant IL-7 (BD Biosciences). UMP or Uridine was added at 250 μg/ml. 5-FOA was added at 100 μg/ml to 1 mg/ml. During culture, medium was refreshed every 2 days.
(§5) Genomic DNA was harvested using QUICKEXTRACT™ DNA Extraction Kit (Epicentre). Cells were counted on an automated cell counter using Trypan blue staining or on a CytoFLEX flow cytometer (Beckman Coulter) with automatic plate reader using COUNTBRIGHT™ beads (ThermoFisher) as a reference for normalizing the values. Alternatively, cells were analyzed after staining with fluorochrome-labelled antibodies (Biolegend) on an ACCURI™ C6 flow cytometer (BD Biosciences), which also measures volumes, or a FACS ARIA™ II SORP cell sorter (BD Biosciences). Data was analyzed using Excel (Microsoft) and FlowJo software (Tree Star).
(§6) T Cells were electroporated and edited as in Example 2 and allowed to recover for a 4-day period in medium with serum, uridine, and UMP. On day 4, cells were shifted to UMP, uridine, or uracil source media.

Mock edited T cells = experiment: as above; type: cell-based, human; details: with metabolite 250 μg/ml
Method: as §4, §5, §6

UMPS knockout T cells [3] = experiment: as above; type: cell-based, human; details: to the same level as mock edited cells
Method: as §4, §5, §6

UMPS knockout T cells [4] = experiment: Cell counts over time after electroporation (Trypan blue); type: cell-based, human; details: supplemented at 250 μg/ml
Description: To evaluate whether the UMPS knockout leads to differential cell proliferation if cultured without the addition of Uridine or Uridine monophosphate (UMP), the cell counts in culture were followed over time by automatic cell counting with Trypan blue staining. UMPS knockout led to lower cell counts from day 2 after electroporation, compared to cells that were mock electroporated or electroporated using Cas9 targeting a different genomic locus (i.e., CCR5) (FIG. 5B).
In contrast, cell proliferation was not impaired after UMPS knockout if UMP or Uridine were supplemented at high concentrations (250 μg/ml each) (FIG. 5C).

UMPS locus [5] = experiment: InDel frequency at end of culture; type: cell-based, human; details: UMPS knockout T cells not exposed to 5-FOA, with metabolite, day 8
Description: To confirm the results on the genomic level, genomic DNA was harvested at the end of the experiment and InDels were quantified (FIG. 5D-FIG. 5E). FIG. 5D compares the frequency of InDels in different culture conditions for cells not exposed to 5-FOA.

UMPS^KO/KO hESCs = experiment: Auxotrophy assay with different uridine concentrations; type: cell-based, human; details: 2.5-250 μg/ml uridine, day 4
Method: The UMP S locus was disrupted in the hESCs by electroporation of Cas9 RNP and selection of a clone with InDels in exon 1 as evaluated by amplification and Sanger sequencing of the genomic locus. For gene editing, hESCs were treated with 10 μm ROCK inhibitor (Y-27632) for 24 hours before electroporation. Cells at 70-80% confluence were harvested with ACCUTASE® solution (Life Technologies). 500,000 cells were used per reaction with a SpCas9 concentration of 150 μg/mL (Integrated DNA Technologies) and a Cas9:sgRNA molar ratio of 1:3 and electroporation performed in P3 Primary Cell solution (Lonza) in 16-well NUCLEOCUVETTE™ Strips in the 4D NUCLEOFECTOR system (Lonza). Immediately after electroporation, cells were transferred into one well of a […]® protein mixture (Corning, Inc.)-coated 24 well plate containing 500 μl of mTeSR™ media ([…] Technologies) with 10 μM Y-27632. Media was changed 24 hours after editing and Y-27632 was removed 48 hours after.
An auxotrophy assay was performed over four days with different concentrations of uridine. Microscope photos of wells were taken on day 4 after seeding UMPS^KO/KO hESCs at similar densities and culturing in the presence of different uridine concentrations. […] Quantification of viable cells on day 4 after seeding to evaluate the effect of different uridine concentrations is shown in Table 15.

[6] = also broken down in the liver; cited from earlier work
UMPS locus [7] = experiment: sgRNA activity screening, InDel quantification by ICE and ICE-D; type: cell-based, human; details: activated T cells, 4 days after electroporation with Cas9
Description: sgRNAs were acquired with chemical modifications from Synthego Corporation. The sgRNAs were complexed with Cas9 protein (IDT) at a molar ration of 2.5:1 (sgRNA:protein) and electroporated into activated T cells using a 4D-NUCLEOFECTOR™ system (Lonza). 4 days later, cells were harvested, and genomic DNA extracted using QUICKEXTRACT™ DNA Extraction Kit (Epicentre) according to the manufacturer's protocol. The sgRNA target site was amplified with specific primers (Table 18) and the amplicon sequenced by Sanger sequencing (MCLab, South San Francisco).
InDel quantification was performed on the sequences using the interference of CRISPR edits (ICE) and ICE-D online tools (ice.synthego.com) (FIG. 5A).

O=C(O)c1[nH]c(=O)[nH]c(=O)c1F [5-FOA, 5-fluoroorotic acid]
Average number of cells per volume unit (Mock T cells; No Serum): 49125.44 | Average number of cells per volume unit (Mock T cells; With Serum): 63071.71 | Average of cells per volume unit (Mock T cells; UMP): 24770.99 | Average of cells per volume unit (Mock T cells; Uridine): 53052.43 | Average number of cells per volume unit (UMPS-7 targeted T cells; No Serum): 72385.14 | Average number of cells per volume unit (UMPS-7 targeted T cells; With Serum): 72181.87 | Average of cells per volume unit (UMPS-7 targeted T cells; UMP): 58299.26 | Average of cells per volume unit (UMPS-7 targeted T cells; Uridine): 77755.72 | Tolerance of UMPS-KO cells (UMPS^KO/KO hESCs (GFP+); 5-FOA 0.25 μg/ml): tolerated | Proliferation of UMPS-KO cells (UMPS^KO/KO hESCs (GFP+); 5-FOA concentrations higher than 0.25 μg/ml): impaired proliferation | Sensitivity of UMPS-WT cells (UMPS^WT/WT cells (GFP−)): sensitive | Proliferation of cells with UMP knockouts ([1]; 5-FOA 10 and 100 μg/ml): proliferated well | Cell growth of cells with UMP knockouts ([1]; highest 5-FOA concentration): slowed their cell growth down | Percent of UMPS^KO/KO cells in mixed cell population ([2]; 5-FOA daily, Day 3): 74.0% | wild-type cells among the cells (FACS) ([2]; 5-FOA only on the first day, Day 0): 56.0% | UMPS-KO T cells among the cells (FACS) ([2]; 5-FOA supplemented daily, Day 3): 74.0%

O=c1ccn([C@@H]2O[C@H](COP(=O)(O)O)[C@@H](O)[C@H]2O)c(=O)[nH]1 [UMP, Uridine monophosphate]
Cell density (CCR5 knockout T cells; Day 2): 1.80E+06 cells per ml | Cell density (CCR5 knockout T cells; Day 6): 3.80E+06 cells per ml | Cell density (Mock edited T cells; Day 4): 3.80E+06 cells per ml | Cell density (Mock edited T cells; Day 8): 3.90E+06 cells per ml | Growth of UMPS edited culture (UMPS knockout T cells [3]): rescued the growth | Survival in 5-FOA compared to control (UMPS-7 targeted T cells): improved the survival | Cell proliferation after UMPS knockout (UMPS knockout T cells [4]): not impaired | Frameshift InDel frequency (UMPS locus [5]): 46.1% | Overall InDel frequency (UMPS locus [5]): 71.1%

O=c1ccn([C@@H]2O[C@H](CO)[C@@H](O)[C@H]2O)c(=O)[nH]1 [Uridine, uridine]
Cell density (CCR5 knockout T cells; Day 4): 3.70E+06 cells per ml | Cell density (Mock edited T cells; Day 4): 3.90E+06 cells per ml | Growth of UMPS edited culture (UMPS knockout T cells [3]): rescued the growth | Survival in 5-FOA compared to control (UMPS-7 targeted T cells): improved the survival | Proliferation (microscope photos) (UMPS^KO/KO hESCs): proliferated | Cell proliferation after UMPS knockout (UMPS knockout T cells [4]): not impaired | Frameshift InDel frequency (UMPS locus [5]): 52.5% | Overall InDel frequency (UMPS locus [5]): 77.0% | Absorption in the gastrointestinal tract [6]: poorly absorbed

B1: UMPS-7: sgRNA targeting exon 1 of UMPS, SEQ ID NO: 1; target sequence + PAM SEQ ID NO: 5 (nucleic acid)
guide: GCCCCGCAGAUCGAUGUAGAGUUUUAGAGCUAGAAAUAGCAAGUUAAAAUAAGGCUAGUCCGUUAUCAACUUGAAAAAGUGGCACCGAGUCGGUGCUUUU
modifications: listed as RNA, chemistry not given here
ICE InDels (UMPS locus [7]): 39% | ICE-D InDels (UMPS locus [7]): 93%
